Measurements: PMC11939996 (Biomolecules, 2025)
One block for each substance: values may come before it.

Assays:
[1] = target: Toll-like receptor 4 (Homo sapiens) (UniProt O00206); conditions: cited from earlier work
Aβ40 fibrillation = experiment: Transmission electron microscopy of Aβ40 fibrils; design: species or system human; conditions: 20 μM Aβ40 alone or with 4 μM S100A8 or S100A9, after ThT assay (30 °C, pH 7.4)
Description: A 300-mesh copper grid coated with a 0.2% formvar film was placed onto a 10 µL drop of the sample. After allowing the sample (after the ThT fluorescence assay) to adsorb for 10 min, the grid was negatively stained for 2 min using a 1% (w/v) aqueous solution of uranyl acetate. Excess staining solution was removed with filter paper, followed by a 1 min rinse in deionized water. The samples were examined using a JEM-1400Plus (HC) transmission electron microscope (JEOL, Ltd., Tokyo, Japan) operated at 80 keV.

monomeric Aβ42 = experiment: Bio-layer interferometry, analyte binding to immobilized monomeric Aβ42; design: species or system human; conditions: for ka × 10^−2: association, bivalent analyte model, number is ka multiplied by 10^−2, 25 °C, pH 7.4, 2.5 mM CaCl2, mean ± SD, n = 3–4
Description: (§1) Next, 96-well microplates with analyte solutions were kept at 25 °C and shaken at 1000 rpm. The Aβ samples were pretreated with neat TFA, followed by dissolution in DMSO as described in ref. [61, 66]. […] The rest of the activated amine groups on the sensor were blocked by 1 M ethanolamine solution. […] The sensor surface was regenerated by the passage of 0.5% SDS water solution for 30 s.
(§2) The direct interaction of S100 proteins with monomeric Aβ was studied by biolayer interferometry in the buffer conditions mimicking the physiological conditions (20 mM Tris-HCl, 140 mM NaCl, 4.9 mM KCl, 2.5 mM CaCl2, 1 mM MgCl2, pH 7.4).
(§3) Since the S100 proteins are predominantly dimeric, their BLI sensograms were described within the bivalent analyte model (1), taking into account that the dimer concentration is half of the monomer concentration.

HSA–Aβ40 interaction = experiment: BLI competition: HSA interaction with monomeric Aβ40 in presence of S100A8/S100A9; assay type: binding, human; conditions: 67 µM HSA with 12 µM S100A8 or 7 µM S100A9; 25 °C, pH 7.4, 2.5 mM CaCl2
Description: (§4) Next, 96-well microplates with analyte solutions were kept at 25 °C and shaken at 1000 rpm. The Aβ samples were pretreated with neat TFA, followed by dissolution in DMSO as described in ref. [61, 66]. The pretreated ligand (5 μg/mL Aβ40/Aβ42 in 10 mM sodium acetate, pH 4.5 buffer) was immobilized onto Octet® AR2G biosensor (Sartorius AG, Göttingen, Germany) by amine coupling using EDAC/sulfo-NHS to achieve the loading level of 3.5 nm. The rest of the activated amine groups on the sensor were blocked by 1 M ethanolamine solution. The noncovalently bound ligand molecules were washed off the sensor with a 0.5% SDS water solution, followed by passage of the assay buffer (20 mM Tris-HCl, 140 mM NaCl, 4.9 mM KCl, 2.5 mM CaCl2, 1 mM MgCl2, pH 7.4), resulting in the loading level of 1.5 nm. […] The sensor surface was regenerated by the passage of 0.5% SDS water solution for 30 s.

HSA–Aβ42 interaction = experiment: BLI competition: HSA interaction with monomeric Aβ42 in presence of S100A8/S100A9; assay type: binding, human; conditions: 67 µM HSA with 12 µM S100A8 or 7 µM S100A9; 25 °C, pH 7.4, 2.5 mM CaCl2
Description: as §4

Aβ40/Aβ42 = experiment: Chemical cross-linking with glutaraldehyde, SDS-PAGE; assay type: binding, human; conditions: faint band; 0.02% glutaraldehyde, 37 °C, 1 h, 25–75 μM S100A8, 20 μM Aβ40/Aβ42, pH 7.4
Description: The protein solution was incubated at 25 °C for 30 min prior to the cross-linking.

Toll-like receptor 4 = conditions: in the presence of Ca^2+ and Zn^2+; cited from earlier work
monomeric Aβ40 = experiment: Bio-layer interferometry, analyte binding to immobilized monomeric Aβ40; design: species or system human; conditions: association; bivalent analyte model; number is ka multiplied by 10^−2; 25 °C, pH 7.4, 2.5 mM CaCl2; mean ± SD, n = 3–4
Description: as §1, §2, §3

RAGE V domain = conditions: cited from earlier work
Aβ40 = conditions: cited from earlier work
Excerpt: Another component colocalized with senile plaques and associated with AD are specific members of the S100 protein family (reviewed in ref. [36]). The S100 family contains over two dozen small (9–13 kDa) multifunctional Ca^2+-binding proteins of the EF-hand superfamily, defined by the presence of the EF-hand motif, which coordinates a calcium ion through a loop located between two α-helices. Some S100 proteins affect cognitive processes, neuronal development and maintenance, APP processing, Aβ levels, the formation of amyloid plaques, post-translational modif ...

[2] = target: RAGE V domain (Homo sapiens) (UniProt Q15109); conditions: cited from earlier work
RAGE V domain (Homo sapiens), sequence (Q15109 23-116): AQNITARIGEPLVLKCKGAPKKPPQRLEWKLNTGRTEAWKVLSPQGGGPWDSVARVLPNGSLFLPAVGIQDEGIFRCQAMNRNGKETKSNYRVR

S100A9, sequence (P06702 whole entry): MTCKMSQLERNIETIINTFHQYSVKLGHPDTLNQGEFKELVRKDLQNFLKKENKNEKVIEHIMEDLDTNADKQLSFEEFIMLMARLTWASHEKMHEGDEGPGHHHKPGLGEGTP
Toll-like receptor 4 (Homo sapiens), sequence (O00206 24-839): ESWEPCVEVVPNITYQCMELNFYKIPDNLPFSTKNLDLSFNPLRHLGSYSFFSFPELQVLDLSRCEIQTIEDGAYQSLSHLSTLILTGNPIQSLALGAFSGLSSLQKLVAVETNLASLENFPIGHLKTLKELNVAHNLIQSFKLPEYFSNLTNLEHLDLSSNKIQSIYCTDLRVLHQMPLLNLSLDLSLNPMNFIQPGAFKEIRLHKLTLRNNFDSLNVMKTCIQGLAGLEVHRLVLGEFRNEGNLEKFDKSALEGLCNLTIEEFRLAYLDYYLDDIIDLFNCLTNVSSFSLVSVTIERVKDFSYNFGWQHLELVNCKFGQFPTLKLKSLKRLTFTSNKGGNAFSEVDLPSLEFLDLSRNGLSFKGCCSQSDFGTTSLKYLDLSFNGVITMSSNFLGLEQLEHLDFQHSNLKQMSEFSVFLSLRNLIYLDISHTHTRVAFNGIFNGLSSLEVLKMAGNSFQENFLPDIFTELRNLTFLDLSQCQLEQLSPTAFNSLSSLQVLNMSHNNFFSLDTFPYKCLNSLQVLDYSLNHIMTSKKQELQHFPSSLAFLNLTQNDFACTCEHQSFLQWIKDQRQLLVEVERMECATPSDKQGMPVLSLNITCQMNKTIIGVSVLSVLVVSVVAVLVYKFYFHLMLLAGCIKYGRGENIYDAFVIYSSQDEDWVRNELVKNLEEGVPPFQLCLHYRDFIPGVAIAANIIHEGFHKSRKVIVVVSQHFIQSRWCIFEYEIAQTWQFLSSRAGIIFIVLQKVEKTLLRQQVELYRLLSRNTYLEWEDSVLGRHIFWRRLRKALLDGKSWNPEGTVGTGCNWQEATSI

Substance: S100A8 (from UniProt P05109)
Kd [1]: 1000 nM

Substance: Aβ40: Recombinant human amyloid-β peptide, 40 residues, prepared in E. coli
fibril morphology by TEM (Aβ40 fibrillation): dense clusters of the intertwined mature fibrils reaching microns in length

accelerated association with Aβ42 versus Aβ40 (monomeric Aβ42; Aβ42 vs Aβ40): 1.5 fold
slower dissociation from Aβ42 versus Aβ40 (monomeric Aβ42; Aβ42 vs Aβ40): 2.4 fold
ka × 10^−2 (monomeric Aβ42): 3.4 ± 0.9 M^−1s^−1
Substance: S100A8: Recombinant human S100A8 prepared in E. coli; pro-inflammatory EF-hand Ca2+-binding protein
maximal BLI signal of HSA interaction with Aβ40 (HSA–Aβ40 interaction): marked decline in the maximal BLI signal
maximal BLI signal of HSA interaction with Aβ42 (HSA–Aβ42 interaction): marked decline in the maximal BLI signal
band of cross-linked complex of S100A8 and Aβ monomers (Aβ40/Aβ42): about 15 kDa
Kd (Toll-like receptor 4): 1000 nM

ka × 10^−2 (monomeric Aβ40): 2.6 ± 1.0 M^−1s^−1
ka × 10^−2 (monomeric Aβ42): 4.5 ± 1.3 M^−1s^−1
Substance: S100A9: Recombinant human S100A9 prepared in E. coli; pro-inflammatory EF-hand Ca2+-binding protein
maximal BLI signal of HSA interaction with Aβ40 (HSA–Aβ40 interaction): marked decline in the maximal BLI signal
maximal BLI signal of HSA interaction with Aβ42 (HSA–Aβ42 interaction): marked decline in the maximal BLI signal
Kd (RAGE V domain): 5000 to 6000 nM
direct S100A9–Aβ40 interaction by NMR (Aβ40): direct S100A9–Aβ40 interaction

Substance: S100A9 (from UniProt P06702)
Kd [2]: 5500 nM
